Reference: US20220175882A1, “BETA-CASEIN A2 AND REDUCING OR […] OF LACTOSE INTOLERANCE” (THE A2 MILK COMPANY LIMITED, priority 2013, published 2022)
Entries after “also recorded” stand apart in the source; their conditions may differ. Where a SMILES comes first, the peptide text is derived from it.

Tests used:
[1] = test system: Caco-2 Gut epithelial cells; conditions: read-out: IC50, inhibition of cysteine uptake; GI epithelial cells (FIG. 4)
Method: (§1) Pre-treatment in cells was performed for different time points for 30 min, 4, 24 and 48 h as described previously (Trivedi M., et al.; Mol. Pharm., 2014). SH-SY5Y human neuronal cells and Caco-2 Gut epithelial cells were plated in six-well plates and were pretreated with drugs and incubated for various times prior to measuring uptake. Media were aspirated and cells were washed with 600 μL of HBSS at 37° C. Non-radioactive HBSS was aspirated, replaced with 600 μL of 37° C. HBSS containing [^35S]-cysteine (1 μCl/1 mL), 10 μM unlabelled cysteine and 100 μM DTT, and the cells were incubated for 5 min. The [^35S]-cysteine/HBSS mixture was aspirated and treatment was terminated by two washes with ice-cold HBSS. Cells were then lysed with 600 μL of dH2O, scraped, collected in 1.5 mL microcentrifuge tubes, and sonicated for 10 s. 100 μL of each sample was aliquoted for protein assay. 200 μL of each sample (in triplicate) was aliquoted into scintillation vials with 4 mL of scintillation fluid, vortexed, and counted for radioactivity (normalised against protein content). […] The symbol * used in these figures indicates a statistically significant difference (p<0.05) compared against the untreated control, and the symbol # indicates a statistically significant difference (p<0.005) compared against the untreated control.

[2] = test system: SH-SY5Y human neuronal cells
Method: as §1

SH-SY5Y cells = assay: DNA methylation by MBD-seq (differentially methylated transcripts); format: cell-based, human; conditions: cells treated 4 hours with 1 μM BCM-7; FDR<0.1, p<0.05
Method: Global DNA methylation levels induced by BCM-7 were investigated using methyl-CpG binding domain (MBD) protein-enriched genome sequencing (MBD-seq) as described previously (Trivedi M., et al., Mol. Pharm. 2014), whereas mRNA translation microarray data was obtained using Agilent V3 microarray chip, from non-treated control SH-SY5Y cells and cells treated for 4 hours with 1 μM BCM-7.
Genomic DNA was extracted from samples with the Easy DNA kit (Invitrogen K1800-01) using the appropriate protocol for cell lines. Fragmentation was performed on Covaris S2 with the following settings: duty cycle 10%, intensity 5, 200 cycles per burst during 200 sec. Fragments were obtained having an average length of 200 bp. The power mode is frequency sweeping, temperature 6-8° C., water level 12. A maximum of 5 μg was loaded in 130 μl Tris-EDTA in a microtube with AFA intensifier. For samples with less DNA input (down to 500 ng) the DNA was diluted 1:5 in TrisEDTA. DNA with an input from 5-3 μg was analysed on the Agilent 2100 using a DNA 1000 chip. DNA with an input lower than 3 μg was concentrated in a rotary evaporator to 25 μl and the fragment distribution was checked on a high sensitivity DNA chip. Methylated DNA was captured using the MethylCap kit (Diagenode, Belgium). The yield was typically between 0.5 and 8 ng of total captured DNA. Fragments were subsequently sequenced using an Illumina Genome Analyzer II. The concentrations of fragmented and captured DNA were determined on a Fluostar Optima plate reader with the Quant-iT PicoGreen dsDNA Assay Kit (Invitrogen P7589) at 480/520 nm.
To prepare the DNA library, a DNA Sample Prep Master Mix Set 1 (NEB E6040) was used in combination with a Multiplexing Sample Preparation Oligo Kit (96 samples, Illumina PE-400-1001). The entire fragmented DNA was utilised and followed the NEB protocols, using the multiplexing sequencing adapters provided in the Multiplexing Sample Preparation Oligo Kit. Size selection of the library was carried out on a 2% agarose gel (Low Range Ultra Agarose Biorad 161-3107). […] A fragment of 300 bps +/−50 bps was excised and eluted on a Qiagen Gel Extraction Kit column (Qiagen 28704) and eluted in 23 μl EB.
The Illumina library amplification index protocol was used with the following alterations: 22 μl DNA was used and performed 21 cycles run. The sample was purified on a Qiaquick PCR Purification column (Qiagen 28101) and eluted in 50 μl EB, 1:5 diluted, and concentrated in a rotary evaporator to 10 μl. 1 μl was applied to a Agilent 2100 HS DNA chip and the concentration was determined by smear analysis on the Agilent 2100. The samples were diluted to 10 nM. After denaturation with NaOH the samples were diluted to […]. The Paired-End flow cell was prepared according to the Cluster Station User Guide. […]

SH-SY5Y neuronal cells = assay: Intracellular cysteine, GSH and SAM/SAH levels by HPLC with electrochemical detection; format: cell-based, human
Method: Media was aspirated and the cells were washed twice with 1 mL of ice cold HBSS. HBSS was aspirated and 0.6 mL ice cold dH2O was added to the cells. The cells were scraped from the flask/dish and suspended in dH2O. […] The remaining lysate was added to a microcentrifuge tube and an equal volume of 0.4 N perchloric acid was added, followed by incubation on ice for 5 min. Samples were centrifuged at 5,000×g and the supernatant transferred to new microcentrifuge tubes.
The separation of redox and methylation pathway metabolites was accomplished using an Agilent Eclipse XDB-C8 analytical column (3×150 mm; 3.5 μm) and an Agilent Eclipse XDB-C8 (4.6×12.5 mm; 5 μm) guard column. […] The flow rate was initially set at 0.6 mL/min and a step gradient was used: 0-9 min 0% B, 9-19 min 50% B, 19-30 min 50% B. The column was then equilibrated with 5% B for 12 min prior to the next run. Temperature was maintained at 27° C. […] Sample concentrations were determined from the peak areas of metabolites using standard calibration curves and ESA-supplied HPLC software. Sample concentrations were normalised against protein content. In some cases samples were diluted in mobile phase as needed or up to 50 μl of sample was injected to assure that thiol levels were within the range of the standard curve.

SMILES: CC[C@H](C)[C@H](NC(=O)[C@@H]1CCCN1C(=O)CNC(=O)[C@@H]1CCCN1C(=O)[C@H](Cc1ccccc1)NC(=O)[C@@H]1CCCN1C(=O)[C@@H](N)Cc1ccc(O)cc1)C(=O)O [BCM-7, beta-casomorphin-7] (H-YPFPGPI-OH; N-terminus and C-terminus assumed)
- IC50 [1]: 15.9 nM
- Receptor mediating the effect on cysteine uptake ([2]; in presence of CTAP (selective μ-antagonist) or naltrindole (delta antagonist), FIG. 6): μ-opioid receptor mediated
- Time course of inhibition of cysteine uptake ([2]; neuronal cells and GI epithelial cells (FIG. 5), 30 min to 48 h exposure): fully developed after 30 minutes and was sustained through 48 hours
- IC50 ([2]; read-out: IC50, inhibition of cysteine uptake, neuronal cells (FIG. 4)): 1.31 nM
- Differentially methylated transcripts: Galactose metabolism (SH-SY5Y cells): GALK2 and GALR2 and GALT and GALR1 and CHST1 and NPY and PYY and GKN1
- Differentially methylated transcripts: Gastric Acid secretion (SH-SY5Y cells): SCTR and OXTR and VIPR1 and SST and PPARGC1A and PGC
- Differentially methylated transcripts: Lactose Biosynthetic pathway (SH-SY5Y cells): LGALS12; also recorded: B4GALT1; also recorded: B4GALT2
- Differentially methylated transcripts: Lactose metabolism (SH-SY5Y cells): LCT
- Cysteine and glutathione (GSH) levels (SH-SY5Y neuronal cells; 30 min, 4 h, 24 h): time-dependent decreases
- Methylation capacity (SAM/SAH ratio) (SH-SY5Y neuronal cells; different time points (FIG. 7)): affected
